From patent US9834558B2, “Substituted bridged urea analogs as sirtuin modulators” (GLAXOSMITHKLINE LLC, priority 2013, dated 2017) come the findings set out here.

Read-outs that look alike come from different tables or passages of the source.

The target of this test is T1, SIRT1 (Homo sapiens, UniProt Q96EB6).
T1 sequence (Q96EB6 1-747): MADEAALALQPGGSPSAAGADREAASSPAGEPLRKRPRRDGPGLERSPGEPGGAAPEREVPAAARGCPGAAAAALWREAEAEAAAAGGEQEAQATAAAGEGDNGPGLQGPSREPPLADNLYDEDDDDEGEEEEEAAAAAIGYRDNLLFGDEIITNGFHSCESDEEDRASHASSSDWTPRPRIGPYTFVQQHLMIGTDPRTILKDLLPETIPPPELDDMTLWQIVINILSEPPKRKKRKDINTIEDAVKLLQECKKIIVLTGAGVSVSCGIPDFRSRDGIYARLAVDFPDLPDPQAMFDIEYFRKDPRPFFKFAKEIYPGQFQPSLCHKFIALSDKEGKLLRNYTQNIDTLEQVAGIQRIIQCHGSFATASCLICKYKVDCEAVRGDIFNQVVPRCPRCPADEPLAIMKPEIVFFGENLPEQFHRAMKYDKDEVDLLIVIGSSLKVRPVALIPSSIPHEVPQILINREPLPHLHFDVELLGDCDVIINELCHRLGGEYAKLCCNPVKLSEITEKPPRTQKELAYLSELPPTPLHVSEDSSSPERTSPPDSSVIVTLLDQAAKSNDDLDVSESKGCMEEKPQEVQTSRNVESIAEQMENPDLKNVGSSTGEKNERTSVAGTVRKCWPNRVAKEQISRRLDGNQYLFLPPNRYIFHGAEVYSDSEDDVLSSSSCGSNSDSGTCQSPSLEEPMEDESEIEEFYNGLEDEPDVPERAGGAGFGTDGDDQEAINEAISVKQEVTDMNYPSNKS
As to the kind of experiment: Trp mass spectrometry assay of SIRT1 activation. As to conditions: for TRP Activity (EC1.5): EC1.5 = concentration that results in 150% activation of SIRT1; for Emax: read-out: TRP MAX RESP (percent maximum fold activation). It counts as biochemical. The gist of the method: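 N-terminal His-tagged human SIRT1 (10 nM, E. coli BL21(DE3)) with 0.5 μM Ac-RHKK(Ac)W-NH2 peptide and 120 μM βNAD+, 25 min at 25 °C in HEPES pH 7.5, formic acid stop. OAADPR or deacetylated peptide quantified by mass spectrometry; EC1.5 (50% activity increase over control) and Percent Maximum Activation reported.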

Where [1] appears, read: Trp peptide assay, maximum activity relative to control (100%).

As to `O=C(Nc1cccnc1)N1c2nc(-c3ccc(C(F)(F)F)nc3)ccc2N2CC[C@H]1C2` [(9S)-N-(pyridin-3-yl)-5-[6-(trifluoromethyl)pyridin-3-yl]-1,6,8-triazatricyclo[7.2.1.0^{2,7}]dodeca-2(7),3,5-triene-8-carboxamide], the “TRP Activity (EC1.5)” value (Trp peptide assay) is on record as “B (B (EC1.5 1-25 μM))”. Also, the Emax under setting [1] is above 150%.

Consider `O=C(Nc1cccnc1)N1c2nc(N3CCC[C@H](C(F)(F)F)C3)ccc2N2CCC[C@H]1C2` [(9S)-N-(pyridin-3-yl)-5-[(3S)-3-(trifluoromethyl)piperidin-1-yl]-1,6,8-triazatricyclo[7.3.1.0 {2,7}]trideca-2(7),3,5-triene-8-carboxamide], for which the “TRP Activity (EC1.5)” value (Trp peptide assay) was “A (A (EC1.5<1 μM))”. Further, the Emax under setting [1] is above 150%.

Take `O=C(Nc1ncccn1)N1c2nc(N3CCC[C@H](C(F)(F)F)C3)ccc2N2CCC[C@H]1C2` [(9S)-N-(pyrimidin-2-yl)-5-[(3S)-3-(trifluoromethyl)piperidin-1-yl]-1,6,8-triazatricyclo[7.3.1.0 {2,7}]trideca-2(7),3,5-triene-8-carboxamide]: the “TRP Activity (EC1.5)” value (Trp peptide assay) is given as “A (A (EC1.5<1 μM))”. In addition, the Emax under setting [1] was above 150%.

With `O=C(Nc1ccncn1)N1c2nc(-c3ccnc(C(F)(F)F)c3)ccc2N2CCC[C@H]1C2` [(9S)-N-(pyrimidin-4-yl)-5-[2-(trifluoromethyl)pyridin-4-yl]-1,6,8-triazatricyclo[7.3.1.0 {2,7}]trideca-2(7),3,5-triene-8-carboxamide], the “TRP Activity (EC1.5)” value (Trp peptide assay) is reported as “A (A (EC1.5<1 μM))”. Under setting [1], the Emax is above 150%.

As to `O=C(Nc1cncnc1)N1c2nc(-c3ccnc(C(F)(F)F)c3)ccc2N2CCC[C@H]1C2` [(9S)-N-(pyrimidin-5-yl)-5-[2-(trifluoromethyl)pyridin-4-yl]-1,6,8-triazatricyclo[7.3.1.0 {2,7}]trideca-2(7),3,5-triene-8-carboxamide], where the note is “Trp peptide assay”, the “TRP Activity (EC1.5)” value was “A (A (EC1.5<1 μM))”. For the same compound, the Emax under setting [1] is above 150%.

For `O=C(Nc1cncnc1)N1c2nc(-c3cncc(C(F)(F)F)c3)ccc2N2CCC[C@H]1C2` [(9S)-N-(pyrimidin-5-yl)-5-[5-(trifluoromethyl)pyridin-3-yl]-1,6,8-triazatricyclo[7.3.1.0 {2,7}]trideca-2(7),3,5-triene-8-carboxamide], the “TRP Activity (EC1.5)” value (Trp peptide assay) is listed as “A (A (EC1.5<1 μM))”. For the same compound, under setting [1], the Emax was above 150%.

`Cc1cc(-c2ccc3c(n2)N(C(=O)NC2CCC2)[C@H]2CCN3C2)ccn1` [(9S)-N-cyclobutyl-5-(2-methylpyridin-4-yl)-1,6,8-triazatricyclo[7.2.1.0 {2,7}]dodeca-2(7),3,5-triene-8-carboxamide]: the “TRP Activity (EC1.5)” value (Trp peptide assay) is listed as “B (B (EC1.5 1-25 μM))”. The Emax under setting [1] was above 150%.

As to `Cc1cc(-c2ccc3c(n2)N(C(=O)NC2CCCC2)[C@H]2CCN3C2)ccn1` [(9S)-N-cyclopentyl-5-(2-methylpyridin-4-yl)-1,6,8-triazatricyclo[7.2.1.0 {2,7}]dodeca-2,4,6-triene-8-carboxamide], the “TRP Activity (EC1.5)” value (Trp peptide assay) is recorded as “B (B (EC1.5 1-25 μM))”. Besides, under setting [1], the Emax was above 150%.

`Cc1cc(-c2ccc3c(n2)N(C(=O)NC2CC2)[C@H]2CCN3C2)ccn1` [(9S)-N-cyclopropyl-5-(2-methylpyridin-4-yl)-1,6,8-triazatricyclo[7.2.1.0 {2,7}]dodeca-2,4,6-triene-8-carboxamide]: the Emax was above 150%. The “TRP Activity (EC1.5)” value (Trp peptide assay) was “B (B (EC1.5 1-25 μM))”.

With `Cc1cc(-c2ccc3c(n2)N(C(=O)Nc2ccc4[nH]cnc4n2)[C@H]2CCN3C2)ccn1` [(9S)-N-{1H-imidazo[4,5-b]pyridin-5-yl}-5-(2-methylpyridin-4-yl)-1,6,8-triazatricyclo[7.2.1.0 {2,7}]dodeca-2(7),3,5-triene-8-carboxamide], under “Trp peptide assay”, the “TRP Activity (EC1.5)” value is given as “B (B (EC1.5 1-25 μM))”. Besides, the Emax under setting [1] is above 150%.

`Cc1cc(-c2ccc3c(n2)N(C(=O)Nc2nccc4[nH]cnc24)[C@H]2CCN3C2)ccn1` [(9S)-N-{1H-imidazo[4,5-c]pyridin-4-yl}-5-(2-methylpyridin-4-yl)-1,6,8-triazatricyclo[7.2.1.0 {2,7}]dodeca-2,4,6-triene-8-carboxamide]: for the setting “Trp peptide assay”, the “TRP Activity (EC1.5)” value was “B (B (EC1.5 1-25 μM))”. Besides, the Emax under setting [1] was above 150%.

Take `O=C(Nc1ccnc(OC[C@H](O)CO)c1)N1c2nc(-c3cccc(C(F)(F)F)c3)ccc2N2CC[C@H]1C2` [(9S)-N-{2-[(2R)-2,3-dihydroxypropoxy]pyridin-4-yl}-5-[3-(trifluoromethyl)phenyl]-1,6,8-triazatricyclo[7.2.1.0 {2,7}]dodeca-2(7),3,5-triene-8-carboxamide]: where the note is “Trp peptide assay”, the “TRP Activity (EC1.5)” value is “A (A (EC1.5<1 μM))”. The Emax under setting [1] is above 150%.

On to `O=C(Nc1ccnc(OC[C@H](O)CO)n1)N1c2nc(-c3cccc(C(F)(F)F)c3)ccc2N2CC[C@H]1C2` [(9S)-N-{2-[(2R)-2,3-dihydroxypropoxy]pyrimidin-4-yl}-5-[3-(trifluoromethyl)phenyl]-1,6,8-triazatricyclo[7.2.1.0 {2,7}]dodeca-2(7),3,5-triene-8-carboxamide], for which, where the note is “Trp peptide assay”, the “TRP Activity (EC1.5)” value was “A (A (EC1.5<1 μM))”. Under setting [1], the Emax is above 150%.

Regarding `O=C(Nc1ccnc(OC[C@@H](O)CO)c1)N1c2nc(-c3cccc(C(F)(F)F)c3)ccc2N2CC[C@H]1C2` [(9S)-N-{2-[(2S)-2,3-dihydroxypropoxy]pyridin-4-yl}-5-[3-(trifluoromethyl)phenyl]-1,6,8-triazatricyclo[7.2.1.0 {2,7}]dodeca-2,4,6-triene-8-carboxamide], where the note is “Trp peptide assay”, the “TRP Activity (EC1.5)” value is “A (A (EC1.5<1 μM))”. Besides, the Emax under setting [1] was above 150%.

On to `O=C(Nc1ccnc(OC[C@@H](O)CO)n1)N1c2nc(-c3cccc(C(F)(F)F)c3)ccc2N2CC[C@H]1C2` [(9S)-N-{2-[(2S)-2,3-dihydroxypropoxy]pyrimidin-4-yl}-5-[3-(trifluoromethyl)phenyl]-1,6,8-triazatricyclo[7.2.1.0 {2,7}]dodeca-2(7),3,5-triene-8-carboxamide], for which the “TRP Activity (EC1.5)” value (Trp peptide assay) is “A (A (EC1.5<1 μM))”. Besides, the Emax under setting [1] was above 150%.

`O=C(Nc1ccnc(O[C@@H]2CCOC2)n1)N1c2nc(-c3cccc(C(F)(F)F)c3)ccc2N2CC[C@H]1C2` [(9S)-N-{2-[(3R)-oxolan-3-yloxy]pyrimidin-4-yl}-5-[3-(trifluoromethyl)phenyl]-1,6,8-triazatricyclo[7.2.1.0 {2,7}]dodeca-2(7),3,5-triene-8-carboxamide]: the “TRP Activity (EC1.5)” value (Trp peptide assay) is “A (A (EC1.5<1 μM))”. Moreover, the Emax under setting [1] is above 150%.

For the compound `Cc1cc(-c2ccc3c(n2)N(C(=O)Nc2cnc4c(c2)OCCO4)[C@H]2CCN3C2)ccn1` [(9S)-N-{2H,3H-[1,4]dioxino[2,3-b]pyridin-7-yl}-5-(2-methylpyridin-4-yl)-1,6,8-triazatricyclo[7.2.1.0 {2,7}]dodeca-2,4,6-triene-8-carboxamide], the “TRP Activity (EC1.5)” value (Trp peptide assay) was “B (B (EC1.5 1-25 μM))”. Under setting [1], the Emax is above 150%.

As to `O=C(Nc1cc(OC[C@H](O)CO)ccn1)N1c2nc(-c3cccc(C(F)(F)F)c3)ccc2N2CC[C@H]1C2` [(9S)-N-{4-[(2R)-2,3-dihydroxypropoxy]pyridin-2-yl}-5-[3-(trifluoromethyl)phenyl]-1,6,8-triazatricyclo[7.2.1.0 {2,7}]dodeca-2(7),3,5-triene-8-carboxamide], the “TRP Activity (EC1.5)” value (Trp peptide assay) was “A (A (EC1.5<1 μM))”. Moreover, the Emax under setting [1] is above 150%.

Turning to `O=C(Nc1cc(OC[C@@H](O)CO)ccn1)N1c2nc(-c3cccc(C(F)(F)F)c3)ccc2N2CC[C@H]1C2` [(9S)-N-{4-[(2S)-2,3-dihydroxypropoxy]pyridin-2-yl}-5-[3-(trifluoromethyl)phenyl]-1,6,8-triazatricyclo[7.2.1.0 {2,7}]dodeca-2(7),3,5-triene-8-carboxamide], for the setting “Trp peptide assay”, the “TRP Activity (EC1.5)” value is recorded as “A (A (EC1.5<1 μM))”. The Emax under setting [1] was above 150%.

As for `O=C(Nc1cncc(OC[C@H](O)CO)n1)N1c2nc(-c3cccc(C(F)(F)F)c3)ccc2N2CC[C@H]1C2` [(9S)-N-{6-[(2R)-2,3-dihydroxypropoxy]pyrazin-2-yl}-5-[3-(trifluoromethyl)phenyl]-1,6,8-triazatricyclo[7.2.1.0 {2,7}]dodeca-2(7),3,5-triene-8-carboxamide], the “TRP Activity (EC1.5)” value (Trp peptide assay) is recorded as “A (A (EC1.5<1 μM))”. The Emax under setting [1] was above 150%.

With `Cc1ccc(-c2ccc3c(n2)N(C(=O)Nc2cncc(OC[C@@H](O)CO)n2)[C@H]2CCN3C2)cn1` [(9S)-N-{6-[(2S)-2,3-dihydroxypropoxy]pyrazin-2-yl}-5-(6-methylpyridin-3-yl)-1,6,8-triazatricyclo[7.2.1.0 {2,7}]dodeca-2(7),3,5-triene-8-carboxamide], where the note is “Trp peptide assay”, the “TRP Activity (EC1.5)” value is reported as “B (B (EC1.5 1-25 μM))”. The Emax under setting [1] is above 150%.
